Test results taken from patent US11274084B2, “3-aryl-4-amido-bicyclic [4,5,0] hydroxamic acids as HDAC inhibitors” (Valo Health, Inc., priority 2015, dated 2022).

What follows are molecules tested against T1, HDAC6 (Homo sapiens, UniProt Q9UBN7) (assay: In vitro histone deacetylase assay: enzymatic HDAC6 assay by electrophoretic mobility shift). Details: full length human recombinant HDAC6 1 nM, 2 μM peptide substrate RHKK(Ac)-NH2, 25° C., 12 concentrations; read-out: Inhibitory Concentration (IC50) against HDAC6, Activity Range.
T1 construct: Full length human recombinant HDAC6 protein; made in house
T1 sequence (Q9UBN7 1-1215): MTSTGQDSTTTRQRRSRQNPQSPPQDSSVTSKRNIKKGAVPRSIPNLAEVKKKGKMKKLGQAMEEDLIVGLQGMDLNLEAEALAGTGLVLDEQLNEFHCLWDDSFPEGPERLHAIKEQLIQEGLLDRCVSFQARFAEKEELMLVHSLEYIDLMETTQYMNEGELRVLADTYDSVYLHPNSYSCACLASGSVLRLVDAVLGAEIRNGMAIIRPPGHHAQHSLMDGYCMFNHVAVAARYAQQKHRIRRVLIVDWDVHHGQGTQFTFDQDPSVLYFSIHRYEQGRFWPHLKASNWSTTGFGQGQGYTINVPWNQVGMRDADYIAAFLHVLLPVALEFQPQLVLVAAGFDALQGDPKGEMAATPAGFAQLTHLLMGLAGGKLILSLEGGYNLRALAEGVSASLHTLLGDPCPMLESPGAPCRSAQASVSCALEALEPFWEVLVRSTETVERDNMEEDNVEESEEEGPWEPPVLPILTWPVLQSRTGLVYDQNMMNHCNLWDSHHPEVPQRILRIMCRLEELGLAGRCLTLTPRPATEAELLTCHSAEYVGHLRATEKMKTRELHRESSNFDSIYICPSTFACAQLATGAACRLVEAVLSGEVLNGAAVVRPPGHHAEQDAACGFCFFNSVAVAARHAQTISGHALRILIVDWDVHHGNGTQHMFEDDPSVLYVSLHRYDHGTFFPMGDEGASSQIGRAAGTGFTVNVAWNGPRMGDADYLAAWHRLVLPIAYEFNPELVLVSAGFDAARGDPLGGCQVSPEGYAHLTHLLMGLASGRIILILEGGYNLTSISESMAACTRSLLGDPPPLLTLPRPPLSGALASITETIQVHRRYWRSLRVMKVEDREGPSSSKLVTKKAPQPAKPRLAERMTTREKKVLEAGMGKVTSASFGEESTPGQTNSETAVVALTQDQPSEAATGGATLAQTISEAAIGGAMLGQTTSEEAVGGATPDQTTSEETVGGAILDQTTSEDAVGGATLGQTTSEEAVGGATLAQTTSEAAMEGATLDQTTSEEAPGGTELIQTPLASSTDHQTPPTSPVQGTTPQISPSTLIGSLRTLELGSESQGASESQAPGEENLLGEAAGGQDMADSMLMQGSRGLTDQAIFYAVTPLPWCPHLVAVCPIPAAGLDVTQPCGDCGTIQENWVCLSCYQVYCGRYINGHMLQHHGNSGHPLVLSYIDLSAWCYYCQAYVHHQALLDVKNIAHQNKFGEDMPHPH
Assay type: biochemical
Description: The enzymatic HDAC6 assay was performed using electrophoretic mobility shift assay. […] The enzymatic reactions were assembled in 384-well plates in a total volume of 25 μL of a reaction buffer comprising. 100 mM HEPES, pH 7.5, 25 mM KCl, 0.1% bovine serum albumin, 0.01% Triton X-100, 1% DMSO (from compounds), 2 μM of the fluorescently labeled peptide substrate, and enzyme. The enzyme was added at a final concentration of 1 nM. The peptide substrate RHKK(Ac)-NH2 was used. The compounds were tested at 12 concentrations spaced by 3× dilution intervals. Negative control samples (0%-inhibition in the absence of inhibitor) and positive control samples (100%-inhibition) were assembled in replicates of four in each assay plate. The reactions were incubated at 25° C. and quenched by the addition of 45 μL of termination buffer (100 mM HEPES, pH 7.5, 0.01% Triton X-100, 0.05% SDS).
The terminated assay plates were analyzed on LabChip® 3000 microfluidic electrophoresis instrument (Perkin Elmer/Caliper Life Sciences). The fluorescence intensity of the electrophoretically separated de-acetylated product and substrate peptide was measured. Activity in each sample was determined as the product to sum ratio (PSR):P/(S+P), where P is the peak height of the product peptide and S is the peak height of the substrate peptide. Percent inhibition (Pinh) is determined using the following equation:
Pinh=(PSR0%−PSRinh)/(PSR0%−PSR100%)*100, where PSRinh is the product sum ratio in the presence of inhibitor, PSR0% is the average product sum ration in the absence of inhibitor, and PSR100% is the average product sum ratio in 100%-inhibition control samples. The IC50 values of inhibitors were determined by fitting the %-inhibition curves with 4 parameter dose-response models using XLfit 4 software.

IC50, ≤ 100 nM:
COC1(C(=O)N2Cc3ccc(C(=O)NO)cc3OC[C@@H]2c2ccccc2)CC1 [(S)-N-hydroxy-4-(1-methoxycyclopropane-1-carbonyl)-3-phenyl-2,3,4,5-tetrahydrobenzo[f][1,4]oxazepine-8-carboxamide], CN1CCC(C(=O)N2Cc3ccc(C(=O)NO)cc3OC[C@@H]2c2ccccc2)CC1 [(S)-N-hydroxy-4-(1-methylpiperidine-4-carbonyl)-3-phenyl-2,3,4,5-tetrahydrobenzo[f][1,4]oxazepine-8-carboxamide], COC(C)(C)C(=O)N1Cc2ccc(C(=O)NO)cc2OC[C@@H]1c1ccccc1 [(S)-N-hydroxy-4-(2-methoxy-2-methylpropanoyl)-3-phenyl-2,3,4,5-tetrahydrobenzo[f][1,4]oxazepine-8-carboxamide], CC1(C(=O)N2Cc3ccc(C(=O)NO)cc3OC[C@@H]2c2ccccc2)CCOCC1 [(S)-N-hydroxy-4-(4-methyltetrahydro-2H-pyran-4-carbonyl)-3-phenyl-2,3,4,5-tetrahydrobenzo[f][1,4]oxazepine-8-carboxamide], CO[C@H]1CC[C@H](C(=O)N2Cc3ccc(C(=O)NO)cc3OC[C@@H]2c2ccccc2)CC1 [(S)-N-hydroxy-4-((1r,4S)-4-methoxycyclohexane-1-carbonyl)-3-phenyl-2,3,4,5-tetrahydrobenzo[f][1,4]oxazepine-8-carboxamide], CO[C@H]1CC[C@@H](C(=O)N2Cc3ccc(C(=O)NO)cc3OC[C@@H]2c2ccccc2)CC1 [(S)-N-hydroxy-4-((1s,4R)-4-methoxycyclohexane-1-carbonyl)-3-phenyl-2,3,4,5-tetrahydrobenzo[f][1,4]oxazepine-8-carboxamide], O=C(NO)c1ccc2c(c1)OC[C@H](c1ccccc1)N(C(=O)C1COC1)C2 [(S)-N-hydroxy-4-(oxetane-3-carbonyl)-3-phenyl-2,3,4,5-tetrahydrobenzo[f][1,4]oxazepine-8-carboxamide], O=C(NO)c1ccc2c(c1)OC[C@H](c1ccc(C(F)(F)F)cc1)N(C(=O)C1CCOCC1)C2 [(S)-N-hydroxy-4-(tetrahydro-2H-pyran-4-carbonyl)-3-(4-(trifluoromethyl)phenyl)-2,3,4,5-tetrahydrobenzo[f][1,4]oxazepine-8-carboxamide], Cc1ccccc1[C@H]1COc2cc(C(=O)NO)ccc2CN1C(=O)C1CCOCC1 [(S)-N-hydroxy-4-(tetrahydro-2H-pyran-4-carbonyl)-3-(o-tolyl)-2,3,4,5-tetrahydrobenzo[f][1,4]oxazepine-8-carboxamide], Cc1ccc([C@H]2COc3cc(C(=O)NO)ccc3CN2C(=O)C2CCOCC2)cc1 [(S)-N-hydroxy-4-(tetrahydro-2H-pyran-4-carbonyl)-3-(p-tolyl)-2,3,4,5-tetrahydrobenzo[f][1,4]oxazepine-8-carboxamide], CC(C)C(=O)N1Cc2ccc(C(=O)NO)cc2OC[C@@H]1c1ccccc1 [(S)-N-hydroxy-4-isobutyryl-3-phenyl-2,3,4,5-tetrahydrobenzo[f][1,4]oxazepine-8-carboxamide], O=C(NO)c1ccc2c(c1)OC[C@H](c1ccccc1)N(C(=O)c1ccncc1)C2 [(S)-N-hydroxy-4-isonicotinoyl-3-phenyl-2,3,4,5-tetrahydrobenzo[f][1,4]oxazepine-8-carboxamide], O=C(NO)c1ccc2c(c1)OC[C@H](c1ccccc1)N(C(=O)c1cccnc1)C2 [(S)-N-hydroxy-4-nicotinoyl-3-phenyl-2,3,4,5-tetrahydrobenzo[f][1,4]oxazepine-8-carboxamide], COCC1(C(=O)N2Cc3ccc(C(=O)NO)cc3OC[C@@H]2c2ccccc2)CC1 [(S)—N-hydroxy-4-(1-(methoxymethyl)cyclopropane-1-carbonyl)-3-phenyl-2,3,4,5-tetrahydrobenzo[f][1,4]oxazepine-8-carboxamide]
